# Several values for one entry are separate records, joined by “and”; a condition that tells them apart may be missing. Equal entries are not always repeated.
# Key:
# [1] = target: TARLL1b (Petromyzon marinus, UniProt A0AAJ7TCG4); experiment: Cell-based receptor activation reporter assay (SEAP / Dual-Glo luciferase); set-up: species or system sea lamprey; conditions: for EC50: TARLL1b
# Description: (§1) Fluorescence was measured with a BioTek Microplate reader.
# [2] = target: TARLL4a (Petromyzon marinus, UniProt A0AAJ7T9R0); experiment: as above; set-up: species or system sea lamprey; conditions: for EC50: TARLL4a; for ligand profile of TARLL4a: ligand library at 100 µM, fig. 4B, fig. S9B
# Description: as §1
# [3] = target: guinea pig TAAR3 (Cavia porcellus, UniProt H0W7C9); experiment: as above
# Description: as §1
# [4] = target: hamster TAAR3 (Mesocricetus auratus, UniProt A0A1U7Q6M0); experiment: as above
# Description: as §1
# [5] = target: TARLL3h (Petromyzon marinus, UniProt A0A678XJN9); experiment: as above; set-up: species or system sea lamprey; conditions: for EC50: TARLL3h; for ligand recognition by TARLL3h: fig. 4C
# Description: as §1
# [6] = tested on: TARLL3h D3.32A; experiment: Site-directed mutagenesis, cell-based receptor activation; set-up: species or system sea lamprey; conditions: mutation of Asp3.32 to alanine; ligand per fig. S9C
# Description: (§2) Recognition of diamines in TAARs involves two aspartic acids, Asp^3.32 and Asp^5.42 ([Li et al. 2015]; [Sharma et al. 2016]). However, although Asp^3.32 is retained in TARLL3h, Asp^5.42 is not found, implying a distinct diamine recognition mechanism in TARLL3h. To investigate this further, we performed homology modeling and ligand docking in TARLL3h. In addition to Asp^3.32 that forms a salt bridge with N,N,N′,N′-tetramethyl-1,4-butanediamine or N,N,N′,N′-tetramethyl-1,3-propanediamine, Tyr^3.33 binds to the other amino group through pi–cation interactions in TARLL3h (fig. 4D). […] To verify the docking results, we performed site-directed mutagenesis in TARLL3h.
# as §1
# [7] = tested on: TARLL3h Y3.33A; experiment: as above; set-up: species or system sea lamprey; conditions: mutation of Tyr3.33 to alanine; ligand per fig. S9C
# Description: as §2, §1
# [8] = tested on: TARLL3h Y3.33F; experiment: as above; set-up: species or system sea lamprey; conditions: mutation of Tyr3.33 to phenylalanine; ligand per fig. S9C
# Description: as §2, §1
# [9] = target: shark TAARS1b (Chiloscyllium punctatum, UniProt A0A401S5C1); experiment: Cell-based receptor activation reporter assay (SEAP / Dual-Glo luciferase); set-up: species or system bamboo shark
# Description: as §1
# [10] = target: sheep TAAR5 (Ovis aries, UniProt A0ACI6PZ16); experiment: as above
# Description: as §1
# [11] = target: mouse TAAR1 (Mus musculus, UniProt Q923Y8); experiment: cell-based; conditions: for response of mouse TAAR1: ligands at 10 µM, luciferase assay, fig. 5B
# Description: Next, we conducted high-throughput screening to further explore the functional properties of these aminergic receptors. We cloned 248 TAARs from 11 mammals (human, mouse, rat, guinea pig, hamster, cat, horse, rabbit, sheep, rhesus, and wild boar), two reptiles (alligator and chicken), six teleosts (zebrafish, catfish, fugu, medaka, salmon, and pufferfish), one lobed-finned fish (coelacanth), one holost fish (spotted gar), and one cartilaginous fish (bamboo shark) (fig. 2A). We also cloned eight TARLs from coelacanth, zebrafish, catfish, fugu, medaka, spotted gar, shark, and 28 TARLLs from sea lamprey (supplementary table S2, Supplementary Material online). In addition, we cloned two HTR4s from mouse and zebrafish. We then challenged all of the cloned receptors with a ligand library comprised 97 amines at 100 µM.
# We then compared the responses of HTR4 from mouse and zebrafish, TARL1 from zebrafish, catfish, fugu, medaka, spotted gar, and coelacanth, TARL2 from coelacanth and shark, TAAR1 from mouse and zebrafish to the 16 ligands at 10 µM (fig. 5B).
# HEK293 cells were plated onto poly-D-lysine (Sigma–Aldrich) preincubated 96-well plates (Corning) with 50 µl growth medium (DMEM medium with 10% BCS and 5% penicillin–streptomycin solution) and cultured for 18–24 h. Receptor plasmids were cotransfected with Cre-SEAP plasmid using polyethylenimine (PEI, Polysciences) and incubated at 37 °C with 5% CO2. About 4 h later, cells were incubated with or without test compounds diluted in serum-free DMEM for 48 h, followed by incubating for 2 h at 70 °C. After returning to room temperature, 50 µl supernatant from each well was incubated with an equal volume of 0.3 mM 4-methylumbelliferyl phosphate (4-MUP, Sigma–Aldrich) in 2 M diethanolamine bicarbonate (Sigma–Aldrich), pH 10.0 for 15 min. Fluorescence was measured with a BioTek Microplate reader.
# Hana3A cells were plated onto 96-well plates (Greiner bio-one) with 50 µl growth medium (DMEM medium with 10% BCS and 5% penicillin–streptomycin solution with puromycin) and cultured at 37 °C with 5% CO2. After 18–24 h, cells in each well were cotransfected with 50 ng receptor plasmid, 10 ng CRE-Luc, 10 ng pRL-SV40, and 10 ng mRTPs using Lipofectamine 2000 (Invitrogen), and incubated for 18 h. Medium was then replaced by 25 µl CD293 (Invitrogen) containing 1% glutamine with or without test compounds for 4 h. The chemiluminescence of firefly luciferase and renilla luciferase were measured with a Biotek Microplate reader using the Dual-Glo Luciferase Assay System (Promega).
# [12] = target: (UniProt Z9G6W3R3V9); experiment: Cell-based receptor activation reporter assay (SEAP / Dual-Glo luciferase); conditions: coelacanth TARL1
# Description: as §1
# [13] = target: coelacanth TAARC1b (Latimeria chalumnae, UniProt H3A8V0); experiment: as above
# Description: as §1
# [14] = target: coelacanth TARL2 (Latimeria chalumnae, UniProt H3AWX3); experiment: as above
# Description: as §1
# [15] = target: zebrafish TAAR1 (Danio rerio, UniProt Q5QNN1); experiment: as above; conditions: zTAAR1
# Description: as §1
# [16] = target: zebrafish TARL1 (Danio rerio, UniProt A0A8M1Q794); experiment: as above
# Description: as §1
# [17] = tested on: cat TAAR9; experiment: as above; conditions: table S3
# Description: as §1
# [18] = target: T1, hamster TAAR9 (Mesocricetus auratus, UniProt A0A1U7R5X1); experiment: as above; conditions: table S3
# T1 construct: Rho tag (N-terminal 20 aa of bovine rhodopsin); expressed in transfected cells; host or cells: HEK293T (SEAP assay) or Hana3A (Dual-Glo luciferase assay)
# T1 sequence (A0A1U7R5X1 1-348): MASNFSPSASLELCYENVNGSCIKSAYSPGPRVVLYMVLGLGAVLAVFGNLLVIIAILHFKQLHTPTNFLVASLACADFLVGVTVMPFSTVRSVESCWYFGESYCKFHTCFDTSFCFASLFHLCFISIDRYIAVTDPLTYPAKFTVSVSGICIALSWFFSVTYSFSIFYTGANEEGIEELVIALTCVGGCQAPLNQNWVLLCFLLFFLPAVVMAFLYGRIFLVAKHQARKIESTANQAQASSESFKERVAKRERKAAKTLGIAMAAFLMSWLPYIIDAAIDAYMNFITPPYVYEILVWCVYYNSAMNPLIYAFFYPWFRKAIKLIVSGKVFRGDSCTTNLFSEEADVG
# Description: as §1
# [19] = target: T2, rabbit TAAR9 (Oryctolagus cuniculus, UniProt G1SUU9); experiment: as above; conditions: table S3
# T2 construct: Rho tag (N-terminal 20 aa of bovine rhodopsin); expressed in transfected cells; host or cells: HEK293T (SEAP assay) or Hana3A (Dual-Glo luciferase assay)
# T2 sequence (G1SUU9 1-348): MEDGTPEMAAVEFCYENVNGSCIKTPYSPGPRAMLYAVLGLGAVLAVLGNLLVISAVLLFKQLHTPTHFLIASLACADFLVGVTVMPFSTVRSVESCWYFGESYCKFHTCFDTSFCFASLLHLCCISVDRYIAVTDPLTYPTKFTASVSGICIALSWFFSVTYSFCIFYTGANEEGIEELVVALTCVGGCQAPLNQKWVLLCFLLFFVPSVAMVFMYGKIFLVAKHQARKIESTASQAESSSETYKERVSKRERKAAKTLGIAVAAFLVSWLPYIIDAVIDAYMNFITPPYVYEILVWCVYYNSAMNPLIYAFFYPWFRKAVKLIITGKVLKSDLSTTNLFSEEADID
# Description: as §1
# [20] = target: T3, rat TAAR9 (Rattus norvegicus, UniProt Q923Y6); experiment: as above; conditions: table S3
# T3 construct: bovine rhodopsin N-terminal 20 amino acids (Rho tag); expressed in transfected cells; host or cells: HEK293(T) (SEAP assay) or Hana3A (Dual-Glo assay)
# T3 sequence (Q923Y6 1-338): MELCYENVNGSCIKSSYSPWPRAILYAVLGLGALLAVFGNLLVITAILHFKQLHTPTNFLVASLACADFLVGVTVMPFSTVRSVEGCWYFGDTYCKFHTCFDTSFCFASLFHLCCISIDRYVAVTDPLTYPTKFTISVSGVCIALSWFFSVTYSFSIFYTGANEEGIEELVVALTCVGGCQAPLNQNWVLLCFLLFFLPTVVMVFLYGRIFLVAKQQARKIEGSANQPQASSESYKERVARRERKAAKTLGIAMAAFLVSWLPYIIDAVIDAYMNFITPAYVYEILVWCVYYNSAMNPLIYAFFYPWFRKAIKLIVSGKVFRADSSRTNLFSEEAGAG
# Description: as §1
# [21] = tested on: mouse TAAR9; set-up: method as in Saraiva et al. 2016; conditions: ref Saraiva et al. 2016; cited from earlier work
# [22] = tested on: TARLL2a (also called TAAR346a); set-up: method as in Scott et al. 2019; conditions: ref Scott et al. 2019; cited from earlier work
# Chain of TARLL4a (A0AAJ7T9R0 entry or part of it): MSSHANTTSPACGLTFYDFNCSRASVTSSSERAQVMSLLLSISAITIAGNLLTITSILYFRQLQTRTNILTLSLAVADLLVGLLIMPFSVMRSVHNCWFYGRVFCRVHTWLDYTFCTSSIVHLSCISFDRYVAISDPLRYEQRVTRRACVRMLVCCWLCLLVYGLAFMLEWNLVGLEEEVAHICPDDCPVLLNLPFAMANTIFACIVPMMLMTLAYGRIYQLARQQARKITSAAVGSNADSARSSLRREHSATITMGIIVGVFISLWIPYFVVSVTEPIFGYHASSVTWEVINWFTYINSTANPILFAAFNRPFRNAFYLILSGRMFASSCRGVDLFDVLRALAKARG
# Chain of TARLL1b (A0AAJ7TCG4 entry or part of it): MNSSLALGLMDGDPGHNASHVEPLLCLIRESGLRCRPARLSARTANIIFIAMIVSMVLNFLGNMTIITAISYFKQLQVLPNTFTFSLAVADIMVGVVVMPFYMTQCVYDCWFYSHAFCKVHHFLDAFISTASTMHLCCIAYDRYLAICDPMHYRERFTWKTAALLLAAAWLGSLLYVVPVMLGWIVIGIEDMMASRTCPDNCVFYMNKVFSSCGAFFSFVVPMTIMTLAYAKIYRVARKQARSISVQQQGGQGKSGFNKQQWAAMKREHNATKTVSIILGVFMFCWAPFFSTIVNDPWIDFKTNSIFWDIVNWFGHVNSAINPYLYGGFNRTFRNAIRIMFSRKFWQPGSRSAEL
# Chain of TARLL3h (A0A678XJN9 entry or part of it): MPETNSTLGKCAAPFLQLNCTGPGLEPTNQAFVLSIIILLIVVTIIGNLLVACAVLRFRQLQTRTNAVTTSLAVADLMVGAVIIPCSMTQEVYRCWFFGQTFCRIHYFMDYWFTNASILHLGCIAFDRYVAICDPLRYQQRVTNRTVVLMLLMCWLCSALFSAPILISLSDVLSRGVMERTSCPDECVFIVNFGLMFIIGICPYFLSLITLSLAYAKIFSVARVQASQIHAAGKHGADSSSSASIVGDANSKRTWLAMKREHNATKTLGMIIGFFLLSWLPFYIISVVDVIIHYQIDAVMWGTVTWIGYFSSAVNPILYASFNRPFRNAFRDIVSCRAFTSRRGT
# Chain of mouse TAAR1 (Q923Y8 whole entry): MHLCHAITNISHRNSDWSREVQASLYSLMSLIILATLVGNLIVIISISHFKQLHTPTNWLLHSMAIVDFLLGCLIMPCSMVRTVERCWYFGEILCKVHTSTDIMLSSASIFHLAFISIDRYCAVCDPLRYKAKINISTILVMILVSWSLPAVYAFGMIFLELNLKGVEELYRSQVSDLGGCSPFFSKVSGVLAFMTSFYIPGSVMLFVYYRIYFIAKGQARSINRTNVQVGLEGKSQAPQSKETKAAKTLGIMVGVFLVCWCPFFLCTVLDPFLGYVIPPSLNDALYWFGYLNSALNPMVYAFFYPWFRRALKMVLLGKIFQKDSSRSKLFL
# Chain of sheep TAAR5 (A0ACI6PZ16 entry or part of it): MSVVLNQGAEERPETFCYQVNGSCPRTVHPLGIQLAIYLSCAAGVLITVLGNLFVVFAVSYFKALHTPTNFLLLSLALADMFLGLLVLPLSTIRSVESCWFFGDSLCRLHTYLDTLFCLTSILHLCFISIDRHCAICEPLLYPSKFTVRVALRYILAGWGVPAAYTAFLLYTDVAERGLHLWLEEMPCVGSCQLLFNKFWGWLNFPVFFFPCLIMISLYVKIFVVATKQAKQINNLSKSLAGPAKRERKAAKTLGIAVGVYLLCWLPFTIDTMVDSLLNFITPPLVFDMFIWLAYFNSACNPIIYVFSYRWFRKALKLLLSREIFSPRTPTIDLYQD
# Chain of hamster TAAR3 (A0A1U7Q6M0 entry or part of it): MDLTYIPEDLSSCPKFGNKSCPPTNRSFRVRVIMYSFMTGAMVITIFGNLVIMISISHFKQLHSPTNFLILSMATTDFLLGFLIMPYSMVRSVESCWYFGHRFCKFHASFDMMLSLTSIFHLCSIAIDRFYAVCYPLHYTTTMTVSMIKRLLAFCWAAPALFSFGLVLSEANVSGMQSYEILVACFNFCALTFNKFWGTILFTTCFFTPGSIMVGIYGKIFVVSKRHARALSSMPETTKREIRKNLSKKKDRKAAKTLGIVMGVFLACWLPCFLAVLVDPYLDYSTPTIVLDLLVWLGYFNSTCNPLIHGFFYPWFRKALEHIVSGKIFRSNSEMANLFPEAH
# Chain of coelacanth TAARC1b (H3A8V0 entry or part of it): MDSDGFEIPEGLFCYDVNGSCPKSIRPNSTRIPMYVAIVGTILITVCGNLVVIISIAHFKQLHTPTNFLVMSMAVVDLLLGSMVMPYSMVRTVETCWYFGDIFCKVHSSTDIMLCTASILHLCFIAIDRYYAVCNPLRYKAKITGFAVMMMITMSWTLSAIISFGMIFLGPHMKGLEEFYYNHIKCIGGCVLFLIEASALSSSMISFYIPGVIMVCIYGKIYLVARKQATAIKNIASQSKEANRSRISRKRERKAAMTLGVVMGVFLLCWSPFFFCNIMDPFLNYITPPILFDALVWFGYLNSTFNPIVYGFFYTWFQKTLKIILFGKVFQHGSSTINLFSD
# Chain of guinea pig TAAR3 (H0W7C9 entry or part of it): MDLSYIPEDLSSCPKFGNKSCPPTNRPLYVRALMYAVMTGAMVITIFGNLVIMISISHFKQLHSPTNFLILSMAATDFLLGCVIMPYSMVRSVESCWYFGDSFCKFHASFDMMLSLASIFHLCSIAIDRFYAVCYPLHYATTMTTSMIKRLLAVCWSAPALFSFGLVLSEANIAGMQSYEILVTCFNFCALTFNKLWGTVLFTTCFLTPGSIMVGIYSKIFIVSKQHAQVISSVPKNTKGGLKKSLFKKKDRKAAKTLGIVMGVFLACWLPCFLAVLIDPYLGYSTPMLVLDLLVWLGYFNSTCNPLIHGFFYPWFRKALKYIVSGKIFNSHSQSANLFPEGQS
# Chain of zebrafish TARL1 (A0A8M1Q794 entry or part of it): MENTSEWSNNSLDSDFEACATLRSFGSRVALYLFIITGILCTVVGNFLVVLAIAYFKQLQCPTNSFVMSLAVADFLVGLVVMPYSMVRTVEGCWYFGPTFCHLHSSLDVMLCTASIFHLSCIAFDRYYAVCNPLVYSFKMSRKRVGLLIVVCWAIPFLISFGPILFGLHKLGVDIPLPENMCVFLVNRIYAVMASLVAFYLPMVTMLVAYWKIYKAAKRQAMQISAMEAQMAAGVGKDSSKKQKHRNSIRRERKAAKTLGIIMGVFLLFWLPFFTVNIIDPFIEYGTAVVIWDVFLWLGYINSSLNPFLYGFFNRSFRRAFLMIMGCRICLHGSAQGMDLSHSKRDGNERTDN
# Chain of zebrafish TAAR1 (Q5QNN1 entry or part of it): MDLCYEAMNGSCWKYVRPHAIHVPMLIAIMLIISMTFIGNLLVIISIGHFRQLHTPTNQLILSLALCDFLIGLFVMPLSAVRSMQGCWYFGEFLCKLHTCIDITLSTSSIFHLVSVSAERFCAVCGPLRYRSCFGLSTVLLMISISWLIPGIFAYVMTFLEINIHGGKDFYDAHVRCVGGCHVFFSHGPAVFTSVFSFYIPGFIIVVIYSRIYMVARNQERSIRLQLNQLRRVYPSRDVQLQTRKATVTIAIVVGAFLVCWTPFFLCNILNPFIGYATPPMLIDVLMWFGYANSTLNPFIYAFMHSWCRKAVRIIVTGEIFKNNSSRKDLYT
# Chain of shark TAARS1b (A0A401S5C1 entry or part of it): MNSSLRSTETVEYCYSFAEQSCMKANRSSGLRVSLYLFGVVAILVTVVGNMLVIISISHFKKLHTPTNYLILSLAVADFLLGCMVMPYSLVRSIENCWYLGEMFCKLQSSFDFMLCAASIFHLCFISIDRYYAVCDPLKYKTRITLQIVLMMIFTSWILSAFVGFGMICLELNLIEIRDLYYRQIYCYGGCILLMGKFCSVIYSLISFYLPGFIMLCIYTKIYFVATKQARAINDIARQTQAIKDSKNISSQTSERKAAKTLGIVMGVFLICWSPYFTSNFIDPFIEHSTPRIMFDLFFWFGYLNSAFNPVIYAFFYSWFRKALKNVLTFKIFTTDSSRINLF
# Chain of coelacanth TARL2 (H3AWX3 entry or part of it): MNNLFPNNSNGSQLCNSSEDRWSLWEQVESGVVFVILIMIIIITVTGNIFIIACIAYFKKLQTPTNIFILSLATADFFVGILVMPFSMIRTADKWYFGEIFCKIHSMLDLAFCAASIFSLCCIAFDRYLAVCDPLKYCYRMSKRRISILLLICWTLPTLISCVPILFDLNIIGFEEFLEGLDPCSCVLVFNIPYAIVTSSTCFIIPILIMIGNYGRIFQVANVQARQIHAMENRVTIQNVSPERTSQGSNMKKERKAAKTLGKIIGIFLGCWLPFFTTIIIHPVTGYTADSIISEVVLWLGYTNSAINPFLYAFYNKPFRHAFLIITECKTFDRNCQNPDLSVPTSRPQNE
smiles,measurement,setting,value
"c1ccc2[nH]ccc2c1 [Indole, indole]",EC50,[1],18.9 µM
same,activation of TARLL1b,"[1]; fig. 4E, fig. S9D and E",can be activated
"CC(C)CCN [Isoamylamine, isoamylamine]",EC50,[2],141 µM
same,EC50,[3],200 µM and ~200 µM
same,EC50,[4],300 µM and ~300 µM
"CC(C)CN [Isobutylamine, isobutylamine]",EC50,[2],199 µM
"CC(C)N [Isopropylamine, isopropylamine]",EC50,[2],254 µM
same,ligand profile of TARLL4a,[2],ligand profile includes
"CN(C)CCCN(C)C [N,N,N',N'-tetramethyl-1,3-propanediamine, N,N,N′,N′-Tetramethyl-1,3-propanediamine]",EC50,[5],116 µM
same,ligand recognition by TARLL3h,[5],recognizes
"CN(C)CCCCN(C)C [N,N,N',N'-tetramethyl-1,4-butanediamine, N,N,N′,N′-tetramethyl-1,4-butanediamine]",EC50,[5],40.4 µM
same,ligand recognition by TARLL3h,[5],recognizes
same,receptor activity of TARLL3h mutant D3.32A,[6],completely eliminated the receptor activity
same,receptor activity of TARLL3h mutant Y3.33A,[7],completely eliminated the receptor activity
same,EC50 of TARLL3h mutant Y3.33F relative to wild type receptor,[8],EC50 three times higher than wild type receptor
"CC(C)N(C)C [N,N-dimethylisopropylamine]",EC50,[9],40.3 µM
same,EC50,[10],50 µM and ~50 µM
"CCCN [Propylamine, propylamine]",EC50,[2],133 µM
"NCCc1c[nH]c2ccc(O)cc12 [Serotonin, serotonin]",EC50,[1],0.2 µM
same,EC50,[11]; mTAAR1,14.4 µM
same,EC50,[12],0.1 µM
same,EC50,[13],0.83 µM and 0.8 µM
same,EC50,[14],0.39 µM
same,EC50,[15],2.35 µM
same,EC50,[16],0.11 µM
NC1CCCCC1 [cyclohexylamine],ligand profile of TARLL4a,[2],ligand profile includes
CCCCCCCN [heptylamine],ligand profile of TARLL4a,[2],ligand profile includes
same,response of mouse TAAR1,[11],slight responses
CCCCCCCCN [octylamine],response of mouse TAAR1,[11],slight responses
NCCCCNCCCN [spermidine],activation of TAAR9,[17],activation
same,activation of TAAR9,[18],activation
same,activation of TAAR9,[19],activation
same,activation of TAAR9,[20],activation
same,ligand recognition by mouse TAAR9,[21],can recognize
NCCCNCCCCNCCCN [spermine],activation of TAAR9,[17],activation
same,activation of TAAR9,[18],activation
same,activation of TAAR9,[19],activation
same,activation of TAAR9,[20],activation
same,ligand recognition by mouse TAAR9,[21],can recognize
same,ligand recognition by TARLL2a,[22],recognize
